According to US12599136B2, “Substituted isophthalic acid diamides and their use as herbicides” (Bayer Aktiengesellschaft, priority 2020, dated 2026):

Key:
Type in all cases: in vivo
Alopecurus myosuroides [1] = assay: Post-emergence herbicidal action against ALOMY
Summary of the method: (§1)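 Greenhouse plants in sandy loam were sprayed at the one-leaf stage, 2 to 3 weeks after sowing, with WP or EC formulations as aqueous suspension or emulsion (600 to 800 l/ha water, 0.2% wetting agent). Visual damage was scored about 3 weeks later versus untreated controls, 0% = like control, 100% = dead.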

Setaria viridis [2] = assay: Pre-emergence herbicidal action against SETVI
Summary of the method: (§2)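 Pre-emergence soil-surface spray of formulated compound (WP or EC; 600 to 800 l/ha; 0.2% wetting agent) over seeds sown in sandy loam. After 3 weeks under greenhouse conditions, damage is estimated visually in percent against untreated plants.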

Lolium rigidum = assay: Pre-emergence herbicidal action against LOLRI
Summary of the method: as §2

Pharbitis purpurea [3] = assay: Pre-emergence herbicidal action against PHBPU; details: visual score after 3 weeks vs untreated controls
Source text: (§3) Seeds of monocotyledonous and dicotyledonous weed plants and crop plants are laid out in sandy loam soil in wood-fiber pots and covered with soil. The compounds of the invention, formulated in the form of wettable powders (WP) or as emulsion concentrates (EC), are then applied to the surface of the covering soil in the form of an aqueous suspension or emulsion at a water application rate equivalent to 600 to 800 l/ha, with addition of 0.2% wetting agent. After the treatment, the pots are placed in a greenhouse and kept under good growth conditions for the trial plants. The damage to the test plants is scored visually after a test period of 3 weeks by comparison with untreated controls (herbicidal activity in percent (%): 100% activity=the plants have died, 0% activity=like control plants). […] The tables below illustrate, in an illustrative manner, the post-emergence herbicidal action of the compounds of the invention, the herbicidal activity being stated in percent.

Abutilon theophrasti [4] = assay: Pre-emergence herbicidal action against ABUTH; details: visual score after 3 weeks vs untreated controls
Summary of the method: as §2

Viola tricolor [5] = assay: Pre-emergence herbicidal action against VIOTR
Summary of the method: as §2

Amaranthus retroflexus [6] = assay: Pre-emergence herbicidal action against AMARE; details: visual score after 3 weeks vs untreated controls
Summary of the method: as §2

Avena fatua [7] = assay: Pre-emergence herbicidal action against AVEFA; details: visual score after 3 weeks vs untreated controls
Summary of the method: as §2

Veronica persica [8] = assay: Post-emergence herbicidal action against VERPE; details: visual assessment about 3 weeks after treatment
Summary of the method: as §1

Abutilon theophrasti [9] = assay: Post-emergence herbicidal action against ABUTH
Summary of the method: as §1

Amaranthus retroflexus [10] = assay: Post-emergence herbicidal action against AMARE; details: visual assessment about 3 weeks after treatment
Summary of the method: as §1

Matricaria inodora [11] = assay: Pre-emergence herbicidal action against MATIN; details: visual score after 3 weeks vs untreated controls
Summary of the method: as §2

Echinochloa crus-galli [12] = assay: Post-emergence herbicidal action against ECHCG; details: visual assessment about 3 weeks after treatment
Summary of the method: as §1

Matricaria inodora [13] = assay: Post-emergence herbicidal action against MATIN; details: visual assessment about 3 weeks after treatment
Summary of the method: as §1

Viola tricolor [14] = assay: Post-emergence herbicidal action against VIOTR
Summary of the method: as §1

Echinochloa crus-galli [15] = assay: Pre-emergence herbicidal action against ECHCG; details: visual score after 3 weeks vs untreated controls
Summary of the method: as §2

Setaria viridis [16] = assay: Post-emergence herbicidal action against SETVI; details: visual assessment about 3 weeks after treatment
Summary of the method: as §1

Alopecurus myosuroides [17] = assay: Pre-emergence herbicidal action against ALOMY; details: visual score after 3 weeks vs untreated controls
Summary of the method: as §2

Avena fatua [18] = assay: Post-emergence herbicidal action against AVEFA; details: visual assessment about 3 weeks after treatment
Summary of the method: as §1

Stellaria media [19] = assay: Post-emergence herbicidal action against STEME; details: visual assessment about 3 weeks after treatment
Method: Seeds of monocotyledonous and dicotyledonous weed and crop plants are laid out in sandy loam soil in wood-fiber pots, covered with soil and cultivated in a greenhouse under good growth conditions. 2 to 3 weeks after sowing, the test plants are treated at the one-leaf stage. The compounds of the invention, formulated in the form of wettable powders (WP) or as emulsion concentrates (EC), are then sprayed onto the green parts of the plants in the form of an aqueous suspension or emulsion at a water application rate equivalent to 600 to 800 l/ha, with addition of 0.2% wetting agent. After the test plants have been left to stand in the greenhouse under optimal growth conditions for about 3 weeks, the action of the preparations is assessed visually in comparison to untreated controls (herbicidal action in percent (%): 100% activity=the plants have died, 0% activity=like control plants). […] The tables below illustrate, in an illustrative manner, the post-emergence herbicidal action of the compounds of the invention, the herbicidal activity being stated in percent.

Cyperus esculentus = assay: Pre-emergence herbicidal action against CYPES; details: visual score after 3 weeks vs untreated controls
Source text: as §3

Stellaria media [20] = assay: Pre-emergence herbicidal action against STEME
Source text: as §3

Pharbitis purpurea [21] = assay: Post-emergence herbicidal action against PHBPU; details: visual assessment about 3 weeks after treatment
Summary of the method: as §1

Veronica persica [22] = assay: Pre-emergence herbicidal action against VERPE; details: 320 g/ha
Summary of the method: as §2

CCN(C(=O)c1c(C(F)F)ccc(C(=O)Nc2nnnn2C)c1Cl)C1CC1 [Example 1-167]
Post-emergence action against ALOMY (Alopecurus myosuroides [1]; 5 g/ha): 90%
Post-emergence action against ALOMY (Alopecurus myosuroides [1]; 20 g/ha): 90%
Pre-emergence action against SETVI (Setaria viridis [2]; 80 g/ha): 100%
Pre-emergence action against LOLRI (Lolium rigidum; 80 g/ha): 90%
Pre-emergence action against PHBPU (Pharbitis purpurea [3]; 80 g/ha): 80%
Pre-emergence action against ABUTH (Abutilon theophrasti [4]; 20 g/ha): 100%
Pre-emergence action against ABUTH (Abutilon theophrasti [4]; 80 g/ha): 100%
Pre-emergence action against VIOTR (Viola tricolor [5]; 20 g/ha): 90%
Pre-emergence action against VIOTR (Viola tricolor [5]; 80 g/ha): 100%
Pre-emergence action against AMARE (Amaranthus retroflexus [6]; 20 g/ha): 100%
Pre-emergence action against AMARE (Amaranthus retroflexus [6]; 80 g/ha): 100%
Pre-emergence action against AVEFA (Avena fatua [7]; 80 g/ha): 90%
Post-emergence action against VERPE in % (Veronica persica [8]; 20 g/ha): 90%
Post-emergence action against ABUTH (Abutilon theophrasti [9]; 5 g/ha): 90%
Post-emergence action against ABUTH (Abutilon theophrasti [9]; 20 g/ha): 90%
Post-emergence action against AMARE in % (Amaranthus retroflexus [10]; 5 g/ha): 100%
Post-emergence action against AMARE in % (Amaranthus retroflexus [10]; 20 g/ha): 100%
Pre-emergence action against MATIN (Matricaria inodora [11]; 20 g/ha): 80%
Pre-emergence action against MATIN (Matricaria inodora [11]; 80 g/ha): 100%
Post-emergence action against ECHCG in % (Echinochloa crus-galli [12]; 20 g/ha): 80%
Post-emergence action against MATIN in % (Matricaria inodora [13]; 20 g/ha): 80%
Post-emergence action against VIOTR in % (Viola tricolor [14]; 5 g/ha): 80%
Post-emergence action against VIOTR in % (Viola tricolor [14]; 20 g/ha): 90%
Pre-emergence action against ECHCG (Echinochloa crus-galli [15]; 80 g/ha): 90%
Post-emergence action against SETVI in % (Setaria viridis [16]; 20 g/ha): 100%
Pre-emergence action against ALOMY (Alopecurus myosuroides [17]; 80 g/ha): 100%

CCCn1nnnc1NC(=O)c1ccc(C(F)(F)F)c(C(=O)N(C)CC2CC2)c1Cl [Example 3-126]
Post-emergence action against ALOMY (Alopecurus myosuroides [1]; 80 g/ha): 80%
Pre-emergence action against SETVI (Setaria viridis [2]; 80 g/ha): 80%
Pre-emergence action against SETVI (Setaria viridis [2]; 320 g/ha): 100%
Pre-emergence action against LOLRI (Lolium rigidum; 320 g/ha): 80%
Pre-emergence action against PHBPU (Pharbitis purpurea [3]; 320 g/ha): 80%
Post-emergence action against AVEFA in % (Avena fatua [18]; 20 g/ha): 90%
Post-emergence action against AVEFA in % (Avena fatua [18]; 80 g/ha): 100%
Pre-emergence action against ABUTH (Abutilon theophrasti [4]; 20 g/ha): 100%
Pre-emergence action against ABUTH (Abutilon theophrasti [4]; 80 g/ha): 100%
Pre-emergence action against ABUTH (Abutilon theophrasti [4]; Dosage column 320 g/ha (heading prints 3200 g/ha)): 100%
Pre-emergence action against VIOTR (Viola tricolor [5]; 80 g/ha): 90%
Pre-emergence action against VIOTR (Viola tricolor [5]; 320 g/ha): 100%
Post-emergence action against STEME in % (Stellaria media [19]; 5 g/ha): 100%
Post-emergence action against STEME in % (Stellaria media [19]; 20 g/ha): 100%
Post-emergence action against STEME in % (Stellaria media [19]; 80 g/ha): 100%
Pre-emergence action against AMARE (Amaranthus retroflexus [6]; 20 g/ha): 90%
Pre-emergence action against AMARE (Amaranthus retroflexus [6]; 80 g/ha): 100%
Pre-emergence action against AMARE (Amaranthus retroflexus [6]; 320 g/ha): 100%
Pre-emergence action against AVEFA (Avena fatua [7]; 320 g/ha): 100%
Post-emergence action against VERPE in % (Veronica persica [8]; 80 g/ha): 90%
Post-emergence action against ABUTH (Abutilon theophrasti [9]; 5 g/ha): 100%
Post-emergence action against ABUTH (Abutilon theophrasti [9]; 20 g/ha): 100%
Post-emergence action against ABUTH (Abutilon theophrasti [9]; 80 g/ha): 100%
Post-emergence action against AMARE in % (Amaranthus retroflexus [10]; 5 g/ha): 100%
Post-emergence action against AMARE in % (Amaranthus retroflexus [10]; 20 g/ha): 100%
Post-emergence action against AMARE in % (Amaranthus retroflexus [10]; 80 g/ha): 100%
Pre-emergence action against MATIN (Matricaria inodora [11]; 80 g/ha): 90%
Pre-emergence action against MATIN (Matricaria inodora [11]; 320 g/ha): 100%
Post-emergence action against ECHCG in % (Echinochloa crus-galli [12]; 5 g/ha): 90%
Post-emergence action against ECHCG in % (Echinochloa crus-galli [12]; 20 g/ha): 100%
Post-emergence action against ECHCG in % (Echinochloa crus-galli [12]; 80 g/ha): 100%
Pre-emergence action against CYPES (Cyperus esculentus; 80 g/ha): 100%
Pre-emergence action against CYPES (Cyperus esculentus; 320 g/ha): 100%
Post-emergence action against MATIN in % (Matricaria inodora [13]; 5 g/ha): 80%
Post-emergence action against MATIN in % (Matricaria inodora [13]; 20 g/ha): 90%
Post-emergence action against MATIN in % (Matricaria inodora [13]; 80 g/ha): 100%
Pre-emergence action against STEME (Stellaria media [20]; 20 g/ha): 80%
Pre-emergence action against STEME (Stellaria media [20]; 80 g/ha): 80%
Pre-emergence action against STEME (Stellaria media [20]; 320 g/ha): 100%
Post-emergence action against VIOTR in % (Viola tricolor [14]; 5 g/ha): 80%
Post-emergence action against VIOTR in % (Viola tricolor [14]; 20 g/ha): 90%
Post-emergence action against VIOTR in % (Viola tricolor [14]; 80 g/ha): 100%
Post-emergence action against PHBPU in % (Pharbitis purpurea [21]; 20 g/ha): 90%
Post-emergence action against PHBPU in % (Pharbitis purpurea [21]; 80 g/ha): 100%
Pre-emergence action against ECHCG (Echinochloa crus-galli [15]; 320 g/ha): 80%
Pre-emergence action against VERPE (Veronica persica [22]): 90%
Post-emergence action against SETVI in % (Setaria viridis [16]; 20 g/ha): 80%
Post-emergence action against SETVI in % (Setaria viridis [16]; 80 g/ha): 100%
Pre-emergence action against ALOMY (Alopecurus myosuroides [17]; 320 g/ha): 90%
